Here are results for 21 compounds from US20130324522A1, “INSECT ODORANT RECEPTOR ANTAGONISTS” (THE ROCKEFELLER UNIVERSITY, priority 2010, published 2013).

One may read the IC50 as the point on the concentration scale where inhibition reaches its midpoint. For orientation: inhibition means the percentage by which the read-out fell short of the control.

The structures appear in SMILES notation. Like-named read-outs stand apart in the source and are kept apart here.

The target in one assay is T1, Or47a/Or83b (Drosophila melanogaster, UniProt P81921+Q9VNB5).
T1 construct: Full-length cDNAs for mosquito (Anopheles gambiae) odorant receptor (OR1, OR2, OR7, OR8, OR28), and fly (Drosophila melanogaster) odorant receptor (Or47a, Or83b); expressed in transfected cells
T1 sequence (P81921 1-385): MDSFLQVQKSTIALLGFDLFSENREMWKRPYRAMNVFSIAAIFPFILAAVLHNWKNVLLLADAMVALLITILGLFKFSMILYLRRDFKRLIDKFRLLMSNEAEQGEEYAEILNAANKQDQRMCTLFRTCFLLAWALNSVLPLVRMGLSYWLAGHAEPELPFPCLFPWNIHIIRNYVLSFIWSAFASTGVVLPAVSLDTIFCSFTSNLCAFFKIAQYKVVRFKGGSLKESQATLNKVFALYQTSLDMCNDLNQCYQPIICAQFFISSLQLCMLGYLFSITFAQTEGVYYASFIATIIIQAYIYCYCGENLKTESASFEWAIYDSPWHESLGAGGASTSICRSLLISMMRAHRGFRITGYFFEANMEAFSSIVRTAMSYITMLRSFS
T1 sequence (Q9VNB5 1-486): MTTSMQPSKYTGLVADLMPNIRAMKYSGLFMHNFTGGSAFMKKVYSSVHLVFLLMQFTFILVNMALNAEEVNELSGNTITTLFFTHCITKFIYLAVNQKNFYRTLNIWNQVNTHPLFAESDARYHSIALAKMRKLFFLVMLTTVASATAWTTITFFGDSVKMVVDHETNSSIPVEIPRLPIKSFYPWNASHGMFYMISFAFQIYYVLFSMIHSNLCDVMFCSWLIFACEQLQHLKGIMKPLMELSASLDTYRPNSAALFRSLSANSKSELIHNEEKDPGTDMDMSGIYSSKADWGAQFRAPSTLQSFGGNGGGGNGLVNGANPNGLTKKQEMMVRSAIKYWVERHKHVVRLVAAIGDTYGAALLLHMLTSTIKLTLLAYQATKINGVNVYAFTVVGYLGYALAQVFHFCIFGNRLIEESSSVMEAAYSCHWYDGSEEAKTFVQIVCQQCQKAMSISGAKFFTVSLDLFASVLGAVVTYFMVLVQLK
As to the kind of experiment: Ca2+-imaging of stable Flip-In T-Rex cell line Or47a/Or83b. In kind it is cell-based. As to conditions: for inhibition at 4 µM: read-out: Percent Inhibition OR47a OR83b. The procedure:
(§1) Full-length cDNAs for mosquito (Anopheles gambiae) odorant receptor (OR1, OR2, OR7, OR8, OR28), and fly (Drosophila melanogaster) odorant receptor (Or47a, Or83b), mouse TRP channel (TRPM8), and mouse serotonin receptor (5HT3) were obtained and subcloned into mammalian expression vectors. The following mammalian expression vectors were used:
(§2) Stable cell lines Or47a/Or83b and 5HT3 were generated from Flip-In T-Rex cells. Flip-In T-Rex-based cell lines were cultured in DMEM supplemented with these additional antibiotics: 6 μg/mL blasticidin and 100 μg/mL hygromycin.
(§3) Cells were trypsinized and split into 35 mm dishes 1 day before transfection. Confluent cells (60-70%) in 35 mm dishes were co-transfected with 1 μg of Or47a/Or83b plasmid in pcDNA5/FRT/TO/IRES plus the pOG44 plasmid or 1 μg of 5HT3 plasmid in pcDNA5/FRT/TO plus the pOG44 plasmid using lipofectamine 2000. Co-transfection of pOG44 and pcDNA5/FRT/TO/IRES or pcDNA5/FRT/TO allows expression of Flp recombinase and integration of the pcDNA5 plasmid into the genome via the FRT site. After one day of incubation, the transfected cells were transferred into 10 cm dishes with DMEM containing antibiotics: 20 μg/mL of hygromycin and 6 μg/mL of blasticidin. The concentration of Hygromycin was increased to 100 μg/mL when the population of cells became 30-40% confluent. The cells were cultured by changing medium every two days until cell clumps appeared. The clumps were picked and transferred into 96 well plates with DMEM containing 100 μg/mL of Hygromycin and 6 μg/mL of blasticidin. The cells were grown and transferred to 24 well plates, and ligand-evoked calcium increases were tested using the Hamamatsu FDSS6000 real time fluorescence plate reader.
(§4) Stable cell lines were cultured in 10 cm dishes, and confluent cells (70-80%) were trypsinized. 10,000 cells/20 μL were transferred into each well of 384-well plates coated with poly-D-lysine, and cultured for 2 days. For Flip-In T-Rex cells (cell lines expressing Or47a/Or83b and 5HT3), 5 μL of tetracycline (5 μg/mL) were added 1 day before the assay. 20 μL of Ca-4 dye was loaded into each well for 1.5 hr at room temperature in the dark, and the dye-loaded plates were subjected to Ca^2+-imaging using a Hamamatsu FDSS6000 real time fluorescence plate reader. Odorant solutions (9× final concentration) were prepared by dissolving 1M stock solutions into Hank's Buffered Salt Solution (HBSS), and 30 μL of odor solution was transferred to each well in 384-well plates.
(§5) Compounds ([…] in DMSO) were stored in 384-well plates, and last two columns (32 wells total) contained only DMSO. 200 nL of small compounds were transferred into the odorant plates before the assay using the Perkin-Elmer Janus workstation. The odorant plates were spun down to remove air bubbles, and placed on the FDSS6000 plate loader, and 5 μL of odorant solution was applied to the cell plate on the FDSS6000. Ca^2+ increase was monitored with fluorescence at 525 nm by excitation at 485 nm.

Assay [1] addresses T2, serotonin receptor (5HT3) (Mus musculus, UniProt P23979).
T2 construct: Full-length cDNAs for mosquito (Anopheles gambiae) odorant receptor; expressed in transfected cells
T2 sequence (P23979 24-489): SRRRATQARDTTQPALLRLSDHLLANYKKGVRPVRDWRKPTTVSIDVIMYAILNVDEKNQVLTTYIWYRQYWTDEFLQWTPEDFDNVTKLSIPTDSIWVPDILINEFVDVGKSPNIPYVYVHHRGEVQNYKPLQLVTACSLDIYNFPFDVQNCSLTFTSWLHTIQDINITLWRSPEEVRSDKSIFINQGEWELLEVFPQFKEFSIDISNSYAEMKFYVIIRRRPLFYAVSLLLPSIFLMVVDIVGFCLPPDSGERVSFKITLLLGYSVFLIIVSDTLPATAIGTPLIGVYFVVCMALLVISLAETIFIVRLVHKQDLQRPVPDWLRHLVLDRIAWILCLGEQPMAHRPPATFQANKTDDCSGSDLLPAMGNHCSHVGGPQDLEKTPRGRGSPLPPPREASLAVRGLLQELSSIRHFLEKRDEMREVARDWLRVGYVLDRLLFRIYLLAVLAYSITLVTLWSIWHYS
The assay can be described thus: Ca2+-imaging of stable Flip-In T-Rex cell line 5HT3. In kind it is cell-based. Particulars: for inhibition at 4 µM: read-out: Percent Inhibition 5HT3. On the procedure: as §1, §2, §3, §4, §5

Setting [2] is: ligand pentyl acetate 30 μM, read-out: IC50 OR47a OR83b.
Setting [3] is: ligand serotonin 10 μM, read-out: IC50 5HT3.

With `COCCCN(Cc1c(-c2ccccc2)noc1N1CCC(C)CC1)C(=O)c1ccccc1F` [RU-0036876], on Or47a/Or83b (Table B, read-out: IC50 OR47a), the IC50 is more than 1 µM. The inhibition at 4 µM at Or47a/Or83b (compound applied at 4 μM) is 51 to 74%; in assay [1] (compound applied at 4 μM) it was 26 to 50%.

`CCN(CC)c1onc(-c2ccc(F)cc2)c1CN(CCCOC)C(=O)c1ccc2c(c1)OCO2` [RU-0036983]: on Or47a/Or83b (Table B, read-out: IC50 OR47a), the IC50 is more than 1 µM. For the same compound, the inhibition at 4 µM is 51 to 74% on Or47a/Or83b (compound applied at 4 μM) and 26 to 50% in assay [1] (compound applied at 4 μM).

For `CN(C)c1ccc(C(=O)N2CCOC(COCc3ccccc3F)C2)cc1` (stereo not shown) [RU-0050325], on Or47a/Or83b (Table B, read-out: IC50 OR47a), the IC50 was more than 1 µM. Moreover, the inhibition at 4 µM at Or47a/Or83b (compound applied at 4 μM) is 26 to 50%; in assay [1] (compound applied at 4 μM), less than 25%.

Consider `C=CCNC(=O)C(NC(=O)c1cccc(C)c1)C1CCN(C(=O)c2cccc(Br)c2)CC1` (stereo not shown) [RU-0039123], for which, on Or47a/Or83b (Table B, read-out: IC50 OR47a), the IC50 is more than 1 µM. Also, the figures for the inhibition at 4 µM (at Or47a/Or83b (compound applied at 4 μM); in assay [1] (compound applied at 4 μM)) were 51 to 74% and 26 to 50%, respectively.

In the case of `CCNc1nc(NC(C)C)nc(N(C#N)Cc2ccccc2)n1` [RU-0015806], the IC50 on Or47a/Or83b (Table B, read-out: IC50 OR47a) was less than 0.1 µM; in assay [1] (Table B, read-out: IC50 5HT3), more than 1 µM. For the same compound, the inhibition at 4 µM (at Or47a/Or83b (compound applied at 4 μM); in assay [1] (compound applied at 4 μM)) was 51 to 74% each time.

Take `CC(C)CN(Cc1nccn1Cc1c(F)cccc1Cl)C(=O)c1ccc(F)cc1` [RU-0048054]: the inhibition at 4 µM on Or47a/Or83b (compound applied at 4 μM) is 26 to 50%; in assay [1] (compound applied at 4 μM), less than 25%.

For the compound `C=CCN(Cc1nccn1Cc1ccccc1F)C(=O)c1cccc(F)c1` [RU-0058232], the inhibition at 4 µM was in the range of 26 to 50% on Or47a/Or83b (compound applied at 4 μM) and 51 to 74% in assay [1] (compound applied at 4 μM). The IC50 in assay [1] (Table B, read-out: IC50 5HT3) was more than 1 µM.

On to `CCOC(=O)CCC(=O)N(CCc1ccccc1)CC(=O)Nc1cc(C(C)(C)C)nn1-c1ccccc1C` [RU-0072462], for which the values for the inhibition at 4 µM (at Or47a/Or83b (compound applied at 4 μM); in assay [1] (compound applied at 4 μM)) were 26 to 50% and less than 25%, respectively.

As to `CCOC(=O)C1CCCN(C(=O)c2csc(CSc3nnc(-c4cccc(OC)c4)n3-c3ccc(C)cc3)n2)C1` (stereo not shown) [RU-0071628], the IC50 at Or47a/Or83b (Table B, read-out: IC50 OR47a) is more than 1 µM. In addition, the inhibition at 4 µM at Or47a/Or83b (compound applied at 4 μM) lay in the range of 51 to 74%; in assay [1] (compound applied at 4 μM), 26 to 50%.

Turning to `CN(Cc1nccn1Cc1c(F)cccc1Cl)C(=O)C1CCCC1` [RU-I5], the IC50 on Or47a/Or83b (setting [2]) fell in the range of 20 to 50 µM; in assay [1] (setting [3]), 2 to 20 µM.

On to `CCCCCCCC(=O)N1CCCC(C(=O)NC2CCCC[C@H]2NC(=O)c2ccccc2C)C1` (stereo partly shown) [RU-0045756], for which the inhibition at 4 µM was 26 to 50% at Or47a/Or83b (compound applied at 4 μM) and less than 25% in assay [1] (compound applied at 4 μM).

As for `CCN(CC)C(=O)Oc1ccc2c(ccn2Cc2ccc(Cl)cc2)c1NC(=O)C1CC1` [RU-0075475], the inhibition at 4 µM (at Or47a/Or83b; in assay [1]) was less than 25% throughout.

`Cc1cccc(Cn2ccnc2CN(C(=O)c2ccccc2F)C2CCCCC2)c1` [RU-0047851]: the results for the inhibition at 4 µM (at Or47a/Or83b (compound applied at 4 μM); in assay [1] (compound applied at 4 μM)) were 26 to 50% and less than 25%, respectively.

On to `CCN(CC)C(=O)Oc1ccc2c(ccn2Cc2ccccc2Cl)c1NC(=O)CCCCC(=O)OC` [RU-0075446], for which the figures for the inhibition at 4 µM (at Or47a/Or83b; in assay [1]) were less than 25% and 26 to 50%, respectively.

With `O=C(c1cccnc1Cl)N1CCOC(COCc2c(Cl)cccc2Cl)C1` (stereo not shown) [RU-0050372], the inhibition at 4 µM at Or47a/Or83b (compound applied at 4 μM) was 26 to 50%; in assay [1] (compound applied at 4 μM) it was less than 25%.

For `Cc1c(C(=O)NCc2ccco2)cnn1-c1ccccc1` [RU-0047765], the IC50 at Or47a/Or83b (Table B, read-out: IC50 OR47a) was more than 1 µM. Also, the inhibition at 4 µM at Or47a/Or83b (compound applied at 4 μM) was 26 to 50%; in assay [1] (compound applied at 4 μM), less than 25%.

For the compound `O=C(c1ccco1)N(Cc1ccco1)Cc1nccn1Cc1ccccc1F` [RU-0047694], the inhibition at 4 µM (at Or47a/Or83b (compound applied at 4 μM); in assay [1] (compound applied at 4 μM)) was 26 to 50% each time.

As to `CC(C)Nc1nc(Cl)nc(NCc2ccccc2)n1` [RU-T9], the 50% inhibitory concentration (IC50) was more than 20 µM at Or47a/Or83b and more than 50 µM in assay [1].

For `O=C(c1nccn1Cc1c(F)cccc1Cl)N(CC1CCCC1)C1CC1` [RU-I3], the IC50 at Or47a/Or83b (setting [2]) was less than 2 µM; in assay [1] (setting [3]), 2 to 20 µM.

As for `COCCN(Cc1c(-c2ccccc2)noc1N(C)C1CCCCC1)C(=O)c1ccccc1OC` [RU-0037275], at Or47a/Or83b (Table B, read-out: IC50 OR47a), the IC50 was more than 1 µM. In addition, the inhibition at 4 µM fell in the range of 51 to 74% at Or47a/Or83b (compound applied at 4 μM) and 26 to 50% in assay [1] (compound applied at 4 μM).

`CCN(CC)C(=O)c1cccc(C)c1` [DEET, N,N-diethyl-m-toluamide, reference compound]: the IC50 (at Or47a/Or83b (setting [2]); in assay [1] (setting [3])) was more than 50 µM each time.
